According to paper PMC8883495, “N-terminal phosphorylation regulates the activity of glycogen synthase kinase 3 from Plasmodium falciparum” (Biochemical Journal, 2022):

How the values were obtained:
[1] = molecular target: T1, PfGSK3 (Plasmodium falciparum, UniProt O77344); assay: KinaseGlo Plus luminescence ATP consumption (autophosphorylation); type: biochemical; conditions: 30 µM ATP, no peptide substrate; 20 mM MgCl2; pH 7.5; 30 °C
T1 construct: gene PF3D7_0312400
T1 sequence (O77344 1-440): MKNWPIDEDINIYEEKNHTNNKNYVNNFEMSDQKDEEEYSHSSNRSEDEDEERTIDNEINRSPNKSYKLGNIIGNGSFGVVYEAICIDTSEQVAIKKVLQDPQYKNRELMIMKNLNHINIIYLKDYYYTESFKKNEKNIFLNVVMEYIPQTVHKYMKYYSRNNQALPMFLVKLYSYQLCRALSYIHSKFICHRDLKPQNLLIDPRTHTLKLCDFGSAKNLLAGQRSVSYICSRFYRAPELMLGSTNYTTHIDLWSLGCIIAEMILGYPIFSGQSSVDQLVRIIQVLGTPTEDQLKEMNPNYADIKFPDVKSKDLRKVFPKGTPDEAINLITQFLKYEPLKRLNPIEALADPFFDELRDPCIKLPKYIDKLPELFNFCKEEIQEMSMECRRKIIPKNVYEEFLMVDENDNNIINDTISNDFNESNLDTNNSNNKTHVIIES

[2] = molecular target: T1, PfGSK3; assay: nanoDSF thermal shift; type: binding; conditions: 1 mg/ml protein; 6 mM dATP in Figure 2B; concentration series in supplement; heating 1 °C/min

Nc1ncnc2c1ncn2[C@@H]1O[C@H](COP(=O)(O)OP(=O)(O)OP(=O)(O)O)[C@@H](O)[C@H]1O [ATP]
KinaseGlo Plus luminescence ATP consumption (autophosphorylation) [1]: The assay showed the consumption of ATP even in the absence of the substrate peptide

Nc1ncnc2c1ncn2[C@H]1C[C@H](O)[C@@H](COP(=O)(O)OP(=O)(O)OP(=O)(O)O)O1 [dATP]
Tm [2]: dATP stabilizes PfGSK3, suggesting that it binds in the ATP binding pocket
